# Target: T1, Cytochrome P450 11B1, mitochondrial (Homo sapiens, UniProt P15538)
# T1 sequence (P15538 whole entry): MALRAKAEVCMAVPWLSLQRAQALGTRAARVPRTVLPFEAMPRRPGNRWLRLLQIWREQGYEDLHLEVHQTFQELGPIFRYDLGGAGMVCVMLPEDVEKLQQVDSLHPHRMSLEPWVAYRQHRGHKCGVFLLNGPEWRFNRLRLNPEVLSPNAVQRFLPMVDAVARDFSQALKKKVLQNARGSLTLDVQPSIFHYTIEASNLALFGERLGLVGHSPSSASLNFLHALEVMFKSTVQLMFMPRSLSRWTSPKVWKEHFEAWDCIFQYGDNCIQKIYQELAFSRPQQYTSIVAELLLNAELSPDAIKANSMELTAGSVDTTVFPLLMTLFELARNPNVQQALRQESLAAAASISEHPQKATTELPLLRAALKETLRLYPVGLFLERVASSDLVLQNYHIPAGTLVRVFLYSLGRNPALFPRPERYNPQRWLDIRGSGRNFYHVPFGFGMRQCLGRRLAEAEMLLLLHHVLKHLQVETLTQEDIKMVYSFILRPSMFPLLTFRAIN
# Test: CYP11B assay
# Method: The enzyme activity was assayed by monitoring the conversion of deoxycorticosterone to corticosterone in the presence of inhibitor compounds. The product formation was monitored by HPTLC using a phosphoimager system.
row,Structure (SMILES),IC50
1,"C/C(=C1/CCc2cc(F)ccc21)c1cccnc1 [3-{1-[(1E)-5-fluoro-2,3-dihydro-1H-inden-1-ylidene]ethyl}pyridine]",159 nM
2,"Clc1ccc2c(c1)CC/C2=C/c1ccncc1 [4-{[(1Z)-5-chloro-2,3-dihydro-1H-inden-1-ylidene]methyl}pyridine]",1120 nM
3,"C(=C1/CCCc2ccccc21)/c1ccncc1 [4-[(E)-3,4-Dihydronaphthalen-1(2H)-ylidenemethyl]pyridine]",282 nM
4,"Brc1ccc2c(c1)CC/C2=C/c1ccncc1 [4-{[(1Z)-5-bromo-2,3-dihydro-1H-inden-1-ylidene]methyl}pyridine]",877 nM

# Source: BindingDB's records for doi:10.1021/jm0492397 (Saarland University, 2005)
